Measured values taken from patent US20260234163A1, “NOVEL COMPOUNDS AND USES THEREOF” (ACELINK THERAPEUTICS, INC., priority 2023, published 2026).

system: Nrf2; assay: Nrf2 Cellular Assay (pGL4.37[luc2P/ARE/Hygro] luciferase reporter in HepG2 cells); format: cell-based; details: ARE luciferase, 6 hours compound treatment
Method: Example 2.2 Nrf2 Cellular Assay
• 1. pGL4.37[luc2P/ARE/Hygro] vector was diluted to 25 ng/μL in Opti-MEM. • 2. Lipofectamine 3000 was added to a 2:1 lipid:DNA. The mixture was mixed by pipetting and incubate at room temperature for 15 minutes. • 3. HepG2 cells were cultured in complete medium (DMEM+10% FBS). • 4. Trypsin was added to the cells, which were filtered via a cell strainer to remove cell cluster, the cells were then quantified and diluted to 2×10^5 cells/ml in complete medium. • 5. The cells and plasmid were mixed, seeded to 384-well plate 50 μL per well (50 ng DNA/well) and incubated for 24 hours in a 37° C., 5% CO2 incubator.
• 1. Medium was removed from cells and replaced with 36 μL of DMEM+10% FBS per well. • 2. Incubated overnight in a 37° C., 5% CO2 incubator.
• 1. Test compound was serially diluted tin DMSO, and further diluted with DMEM (contains 10% FBS) to 10× final concentration. • 2. 4 μL of the 10× compound was added to each well, the plate was shaken for 10 sec on a plate shaker and incubated for 6 hours in a 37° C., 5% CO2 incubator.
• 1. Plates were removed from the 37° C., 5% CO2 incubator and allowed to cool to room temperature for approximately 15 minutes. • 2. 40 μL of the Glo Luciferase Assay System detection reagents were added, and the plate was shaken for 3 min and luminescence was measured.

With `O=C(O)CC1c2ccc3c(c2)CN(CC3)C(=O)N2CCC(CCCCCn3nnc4cc1cnc43)CC2` (single isomer, unassigned) [Compound 54] the EC50 was ≤ 10 µM.

same assay, conditions: Homo sapiens, HepG2, 6 h, ARE luciferase, 6 hours compound treatment

`Cc1ccc2cc1CN(C)C(=O)c1ccc(cc1)COCCCn1nnc3c(C)c(ccc31)C2CC(=O)O` (single isomer, unassigned) [Compound 17, 2-(1^4,3^4,5-trimethyl-6-oxo-1^1H-9-oxa-5-aza-1(5,1)-benzo[d][1,2,3]triazola-3(1,3), 7(1,4)-dibenzenacyclododecaphane-2-yl)acetic acid] and `Cc1c2ccc3c1nnn3CCOCCOc1ccc(cc1)S(=O)(=O)N1CCc3ccc(cc3C1)C2CC(=O)O` (stereo not shown) [Compound 1, tert-butyl 2-(1^4-methyl-4,4-dioxido-3^1,3^2,3^3,3^4-tetrahydro-1^1H-6,9-dioxa-4-thia-3(7,2)-isoquinolina-1(5,1)-benzo[d][1,2,3]triazola-5(1,4)-benzenacycloundecaphane-2-yl)acetic acid] cannot be ordered by EC50: > 30 µM for the first, > 30 µM for the second.

Molecule `O=C(O)CC1c2ccc3c(c2)CN(CC3)C(=O)N2CCC(CCCCCn3nnc4cc1cnc43)CC2` (single isomer, unassigned) [Compound 53] has an EC50 of 10 to 30 µM.

biological target: T1, Keap1-Nrf2 (Homo sapiens, UniProt Q14145); assay: Keap1-Nrf2 Binding Inhibitory Activity Assay (fluorescence polarization, Keap1_FL + FITC-Nrf2 peptide); details: Keap1-FL, 60 min room temperature
T1 construct: purchased Sino Biological 11981-H20B
Method: Example 2.1 Keap1-Nrf2 Binding Inhibitory Activity Assay
• PerkinElmer EnVision 2105 Multilabel Reader • PerkinElmer FITC FP dual emission Label 2100-8060 • LABCYTE Echo 650 • Corning 384-well microplate #4514 • Keap1_FL, Sino Biological, catalog 11981-H20B • FITC-Nrf2 peptide, GL Biochem, Lot No: p210427-XQ892761
• a) Reference titration • 1. Keap1-Nrf2 Assay Buffer was prepared: 10 mM Tris-HCl pH 7.4, 150 mM NaCl, 50 mM EDTA, 0.05% Tween20, 0.1 mg/ml BSA (freshly add before use). • 2. 2.04× Tracer working solution was prepared: 2.04 nM FITC-Nrf2 peptide in Assay Buffer from 1 μM DMSO stock. • 3. 2× Protein working solution was prepared: 25 nM Keap1-FL in Assay Buffer. • 4. 100× compound working solutions with DMSO were prepared. Starting from 100 μM, serial 3-fold dilutions (10 points) were made by the Echo on the 384-well LDV microplate, then 200 nL of compounds, in duplicated wells, were transferred to a Corning 4514 plate. • 5. 9.8 μL per well of the Tracer working solution was added into the Corning 4514 plate. • 6. 10 μL per well of the Protein working solution was added into the Corning 4514 plate, except for the first two columns where Dilution Buffer were added to serve as “positive control”. • 7. The plate was incubated at room temperature for 60 min. • b) Read data on an EnVision with the following setting: Excitation Light (%): 84; Measurement Height: 9.4; G-Factor: 1; Detector Gain 1:220; Detector Gain 2: 220; Flash Number: 50.
All the Test Compounds were considered as having Keap1-Nrf2 binding inhibitory activity.

First: Cc1ccc2cc1CN(C)C(=O)c1ccc(cc1)COCCCn1nnc3c(C)c(ccc31)C2CC(=O)O (single isomer, unassigned) [Compound 16, 2-(1^4,3^4,5-trimethyl-6-oxo-1^1H-9-oxa-5-aza-1(5,1)-benzo[d][1,2,3]triazola-3(1,3), 7(1,4)-dibenzenacyclododecaphane-2-yl)acetic acid]
Second: Cc1c2ccc3c1nnn3CCCOCc1ccc(cc1)C(=O)N(C)Cc1cc(ccn1)C2CC(=O)O (single isomer, unassigned) [Compound 26]
The IC50 of the first is higher: 1000 to 10000 nM for the first, 100 to 1000 nM for the second. The second is the more potent here.

`Cc1ccc2cc1CN(C)C(=O)c1ccc(cc1)COCCCn1nnc3c(C)c(ccc31)C2CC(=O)O` (single isomer, unassigned) [Compound 17, 2-(1^4,3^4,5-trimethyl-6-oxo-1^1H-9-oxa-5-aza-1(5,1)-benzo[d][1,2,3]triazola-3(1,3), 7(1,4)-dibenzenacyclododecaphane-2-yl)acetic acid] and `Cc1c2ccc3c1nnn3CCCOCc1ccc(cc1)C(=O)N(C)Cc1cc(ccn1)C2CC(=O)O` (single isomer, unassigned) [Compound 27] fall in the same range of IC50: 1000 to 10000 nM for the first, 1000 to 10000 nM for the second.

`Cc1c2ccc3c1nnn3CCOCCOC1CCN(CC1)C(=O)c1ccc3ccc(cc3c1)C2CC(=O)O` (single isomer, unassigned) [Compound 18] and `Cc1c2ccc3c1nnn3CCOCCOC1CCN(CC1)C(=O)c1ccc3c(c1)CN(CC3)C2CC(=O)O` (stereo not shown) [Compound 9, 2-(carboxymethyl)-1^4-methyl-4-oxo-3^1,3^2,3^3,3^4-tetrahydro-1^1H-6,9-dioxa-3(2,7)-isoquinolin-2-iuma-1(5,1)-benzo[d][1,2,3]triazola-5(1,4)-piperidinacycloundecaphan-3^2-ium chloride] fall in the same range of IC50: 1000 to 10000 nM for the first, 1000 to 10000 nM for the second.

Compared with `Cc1c2ccc3c1nnn3CCOCCOC1CCN(CC1)C(=O)c1ccc3ccc(cc3c1)C2CC(=O)O` (single isomer, unassigned) [Compound 19], `Cc1c2ccc3c1nnn3CCOCCOC1CCN(CC1)S(=O)(=O)N1CCc3ccc(cc3C1)C2CC(=O)O` (stereo not shown) [Compound 15, 2-(1^4-methyl-4,4-dioxido-3^1,3^2,3^3,3^4-tetrahydro-1^1H-6,9-dioxa-4-thia-3(7,2)-isoquinolina-1(5,1)-benzo[d][1,2,3]triazola-5(1,4)-piperidinacycloundecaphane-2-yl)acetic acid] is lower in IC50: 1000 to 10000 nM for the first, ≤ 100 nM for the second. The second is the more potent here.

Compared with `Cc1c2ccc3c1nnn3CCCOCc1ccc(cc1)C(=O)N(C)Cc1cncc(c1)C2CC(=O)O` (single isomer, unassigned) [Compound 20], `Cc1c2ccc3c1nnn3CCCOCc1ccc(cc1)C(=O)N(C)Cc1ccnc(c1)C2CC(=O)O` (stereo not shown) [Compound 21] is lower in IC50: 1000 to 10000 nM for the first, 100 to 1000 nM for the second. The second is the more potent here.

First: Cc1c2ccc3c1nnn3CCCOCc1ccc(cc1)C(=O)N(C)Cc1cncc(c1)C2CC(=O)O (single isomer, unassigned) [Compound 23]
Second: Cc1c2ccc3c1nnn3CCCOCc1ccc(cc1)C(=O)N(C)Cc1cccc(n1)C2CC(=O)O (single isomer, unassigned) [Compound 24]
The IC50 of the first is higher: 1000 to 10000 nM for the first, 100 to 1000 nM for the second. The second is the more potent here.

`Cc1c2ccc3c1nnn3CCCOCc1ccc(cc1)C(=O)N(C)Cc1cccc(n1)C2CC(=O)O` (single isomer, unassigned) [Compound 25] and `Cc1c2ccc3c1nnn3CCCOCc1ccc(cc1)S(=O)(=O)N(C)Cc1cccc(c1)C2CC(=O)O` (stereo not shown) [Compound 22] fall in the same range of IC50: 1000 to 10000 nM for the first, 1000 to 10000 nM for the second.

`Cc1c2ccc3c1nnn3CCCCCC1CCN(CC1)C(=O)N1CCc3ccc(cc3C1)C2CC(=O)O` (single isomer, unassigned) [Compound 28] and `Cc1c2ccc3c1nnn3CCCCCC1CCC(CC1)C(=O)N1CCc3ccc(cc3C1)C2CC(=O)O` (single isomer, unassigned) [Compound 49] cannot be ordered by IC50: ≤ 100 nM for the first, ≤ 100 nM for the second.

`Cc1c2ccc3c1nnn3CCCCCC1CCN(CC1)C(=O)N1CCc3ccc(cc3C1)C2CC(=O)O` (single isomer, unassigned) [Compound 29] and `Cc1c2ccc3c1nnn3CCCCCC1CCC(CC1)C(=O)N1CCc3ccc(cc3C1)C2CC(=O)O` (single isomer, unassigned) [Compound 50] cannot be ordered by IC50: ≤ 100 nM for the first, ≤ 100 nM for the second.

`Cc1c2ccc3c1nnn3CCCCC1CCC(CC1)C(=O)N1CCc3ccc(cc3C1)C2CC(=O)O` (single isomer, unassigned) [Compound 47] and `Cc1c2ccc3c1nnn3CCCCC1CCC(CC1)C(=O)N(C)Cc1cccc(c1)C2CC(=O)O` (stereo not shown) [Compound 36] cannot be ordered by IC50: ≤ 100 nM for the first, 100 to 1000 nM for the second.

`Cc1c2ccc3c1nnn3CCCCC1CCC(CC1)C(=O)N1CCc3ccc(cc3C1)C2CC(=O)O` (single isomer, unassigned) [Compound 48] and `Cc1c2ccc3c1nnn3CCCCC(=O)N1CCc3ccc(cc3C1)C2CC(=O)O` (stereo not shown) [Compound 46] cannot be ordered by IC50: ≤ 100 nM for the first, 100 to 1000 nM for the second.

`O=C(O)CC1c2ccc3c(c2)CN(CC3)C(=O)N2CCC(CCCCn3nnc4cc1cnc43)CC2` (single isomer, unassigned) [Compound 51] and `O=C(O)CC1c2ccc3c(c2)CN(CC3)C(=O)N2CCC(CCCCCn3nnc4cc1cnc43)CC2` (single isomer, unassigned) [Compound 53] cannot be ordered by IC50: 100 to 1000 nM for the first, ≤ 100 nM for the second.

`O=C(O)CC1c2ccc3c(c2)CN(CC3)C(=O)N2CCC(CCCCn3nnc4cc1cnc43)CC2` (single isomer, unassigned) [Compound 52] and `O=C(O)CC1c2ccc3c(c2)CN(CC3)C(=O)N2CCC(CCCCCn3nnc4cc1cnc43)CC2` (single isomer, unassigned) [Compound 54] cannot be ordered by IC50: ≤ 100 nM for the first, ≤ 100 nM for the second.

`Cc1c2ccc3c1nnn3CCOCCOc1ccc(cc1)S(=O)(=O)N1CCc3ccc(cc3C1)C2CC(=O)O` (stereo not shown) [Compound 1, tert-butyl 2-(1^4-methyl-4,4-dioxido-3^1,3^2,3^3,3^4-tetrahydro-1^1H-6,9-dioxa-4-thia-3(7,2)-isoquinolina-1(5,1)-benzo[d][1,2,3]triazola-5(1,4)-benzenacycloundecaphane-2-yl)acetic acid] and `Cc1c2ccc3c1nnn3CCCCOc1ccc(cc1)S(=O)(=O)N1CCc3ccc(cc3C1)C2CC(=O)O` (stereo not shown) [Compound 13, 2-(1^4-methyl-4,4-dioxido-3^1,3^2,3^3,3^4-tetrahydro-1^1H-6-oxa-4-thia-3(7,2)-isoquinolina-1(5,1)-benzo[d][1,2,3]triazola-5(1,4)-benzenacyclodecaphane-2-yl)acetic acid] cannot be ordered by IC50: 100 to 1000 nM for the first, ≤ 100 nM for the second.

First: Cc1c2ccc3c1nnn3CCCCOC1CCN(CC1)S(=O)(=O)N1CCc3ccc(cc3C1)C2CC(=O)O (stereo not shown) [Compound 6, 2-(1^4-methyl-4,4-dioxido-3^1,3^2,3^3,3^4-tetrahydro-1^1H-6-oxa-4-thia-3(7,2)-isoquinolina-1(5,1)-benzo[d][1,2,3]triazola-5(1,4)-piperidinacyclodecaphane-2-yl)acetic acid]
Second: Cc1c2ccc3c1nnn3CCCCCNC(=O)N1CCc3ccc(cc3C1)C2CC(=O)O (stereo not shown) [Compound 43]
The IC50 of the first is lower: ≤ 100 nM for the first, 1000 to 10000 nM for the second.

Compared with `Cc1c2ccc3c1nnn3CCCCCC1CCN(CC1)C(=O)N(C)Cc1cccc(c1)C2CC(=O)O` (stereo not shown) [Compound 31], `Cc1c2ccc3c1nnn3CCCCC1CCN(CC1)C(=O)N(C)Cc1cccc(c1)C2CC(=O)O` (stereo not shown) [Compound 32] is higher in IC50: 100 to 1000 nM for the first, 1000 to 10000 nM for the second.

`Cc1c2ccc3c1nnn3CCCCCCCCNC(=O)N1CCc3ccc(cc3C1)C2CC(=O)O` (stereo not shown) [Compound 38] and `Cc1c2ccc3c1nnn3CCCCCCCCCC(=O)N1CCc3ccc(cc3C1)C2CC(=O)O` (stereo not shown) [Compound 41] cannot be ordered by IC50: ≤ 100 nM for the first, ≤ 100 nM for the second.

First: Cc1c2ccc3c1nnn3CCCCCCC(=O)N1CCc3ccc(cc3C1)C2CC(=O)O (stereo not shown) [Compound 42]
Second: Cc1c2ccc3c1nnn3CCCCCC1CCN(CC1)C(=O)N(C)CCc1ccc(cc1)C2CC(=O)O (stereo not shown) [Compound 44, 2-(14,6-dimethyl-7-oxo-11H-6-aza-1(5,1)-benzo[d][1,2,3]triazola-8(1,4)-piperidina-3(1,4)-benzenacyclotridecaphane-2-yl)acetic acid]
The IC50 of the first is lower: ≤ 100 nM for the first, 1000 to 10000 nM for the second.
